# Patent US11154527B2, “Dermatophytosis prophylaxis and treatment” (The Children's Mercy Hospital, priority 2015, dated 2021)
# Read-outs that look alike come from different tables or passages of the source.
# Assays:
# [1] = system: reference strain of T. tonsurans; test: Preliminary screening of 7,676 compounds (384 well format), growth read at 600 nm; type: cell-based, Trichophyton tonsurans; conditions: preliminary screen
# Experimental: (§1) Materials Used: • 10 mm×100 mm petri plate of dermatophyte culture grown to confluency (>14 days) on Sabouraud's dextrose agar (Becton Dickinson, Sparks Md.) containing 50 mg/L chloramphenicol and 500 mg/L cycloheximide (Sigma Chemical Company, St. Louis Mo.) (see appendix A for recipe). • 1× sterile Phosphate Buffered Saline (Sigma Chemical Company, St. Louis Mo.). • (2) 15 mL sterile disposable conical tubes (Thermo Fisher Scientific, Rochester N.Y.). • Disposable sterile inoculating loop (Fisher Scientific, Hanover Park Ill.). • Disposable sterile transfer pipette (Fisher Scientific, Hanover Park Ill.). • Sterilized 2″×2″ 4 ply gauze (Medline Industries, Mundelein Ill.) • 30 mL sterile disposable syringe (Becton Dickinson, Franklin Lakes N.J.). • Hemocytometer (Fisher Scientific, Hanover Park Ill.).
# (§2) Spore Prep Procedure (performed aseptically in a biosafety cabinet): • The fungal plate was flooded with 10 mL of sterile 1×PBS and with a sterile disposable inoculating loop, then the surface was gently scraped until all the fungal material (hyphae and spores) was liberated into the PBS. • Using a disposable transfer pipette, the entire volume of PBS/spores was transferred from the plate into a sterile 15 mL conical tube. • Next, 2 mL of sterile 1×PBS was added to the plate and swirled to rinse. • Using the transfer pipette, the remaining volume of PBS/spores was transferred from the plate to the 15 mL conical. • Then, the 15 mL tube was capped and vortexed at max speed for 10-15 seconds, set aside. • The plunger from the 30 mL syringe was then removed and the barrel was packed with 1 square of sterile 2″×2″ gauze. • Using the plunger, the gauze was firmly packed at the bottom of the barrel then the plunger was removed. • The syringe barrel was placed into a new sterile 15 mL conical tube and the entire contents of the 15 mL PBS/spore suspension was poured directly onto the gauze in the syringe barrel. • The plunger was then gently inserted into the barrel and depressed all the way down to filter the spore/hyphal suspension through the gauze. • The plunger was gently removed and additional 2 mL of sterile PBS was added back to the original 15 mL conical tube.
# Screening (384 well format):
# Note: final concentration of DMSO was not to exceed 0.5%.
# NOTE: there was residual spore suspension, the calculations above allowed for overage to ensure enough suspension is made for each plate. • Using the peristaltic pump, the automated dispenser was programmed to deliver 35 μL of 2×SabDEX broth to each well in the 384 well plate. The pump was then purged of growth media and re-primed with the spore suspension. The dispenser was then programmed to deliver 35 μL of spore suspension to each test well (to include+growth controls). • Negative growth controls were made by manually pipetting 35 μL of sterile 1×PBS from a sterile multi-channel boat into each (−) control well using a 100 μL pipette. • Each plate was given a numerical designation, dated, sealed with an EDGE® seal and placed in a 32° C. incubator for 48 hours. • After incubation, the seal was carefully removed and the plate read at 600 nm using a single point read on a microplate reader. • If more time was required, the plate was re-sealed and incubated an additional 24 hours.
# [2] = system: reference strain of T. tonsurans; test: MIC / dose-response testing against reference strain of T. tonsurans; type: cell-based, Trichophyton tonsurans; conditions: Trichophyton tonsurans
# Experimental: as §1, §2
# (§3) MIC Testing (96 well format):
# (§4) To Make the Spore Suspension:
# (§5) • A 2 mM stock of the compound to be tested was made in 100% DMSO in a sterile 1.5 mL microfuge tube. • Vortexed the tube vigorously for 1 minute, then protected the compound from light and rocked or shook for 1 hour at room temperature to fully dissolve. • NOTE: Because the 2× culture media was diluted with an equal volume of spore/PBS solution to achieve a 1× final media concentration, the high standard for the range of compound to be tested was made at 2× the highest concentration desired and contain a final DMSO concentration of 0.5%.
# (§6) To generate the range of compound to be tested, the following dilution protocol was performed:
# (§7) (a) The high standard was made:
# (§8) The result was 1000 μL of a 20 μM stock in 2× Culture Medium with a final [DMSO] of 1%.
# (§9) (b) The drug dilution range to be tested was made by serially diluting the high standard 1:1 with 2× Culture Medium/1% DMSO.
# (§10) Aseptically added 100 μL of the drug/media manually to each well according to the plate map in FIG. 2, as follows: […]
# [3] = system: 5 genetically distinct strain of T. tonsurans; test: MIC testing against 5 genetically distinct strains of T. tonsurans; type: cell-based; conditions: Trichophyton tonsurans
# Experimental: as §1, §2, §3, §4, §5, §6, §7, §8, §9, §10
# [4] = system: T. rubrum; test: MIC testing against different Trichophyton species: T. rubrum; type: cell-based
# Experimental: (§11) Materials Used: • 10 mm×100 mm petri plate of dermatophyte culture grown to confluency (>14 days) on Sabouraud's dextrose agar (Becton Dickinson, Sparks Md.) containing 50 mg/L chloramphenicol and 500 mg/L cycloheximide (Sigma Chemical Company, St. Louis Mo.) (see appendix A for recipe). • 1× sterile Phosphate Buffered Saline (Sigma Chemical Company, St. Louis Mo.). • (2) 15 mL sterile disposable conical tubes (Thermo Fisher Scientific, Rochester N.Y.). • Disposable sterile inoculating loop (Fisher Scientific, Hanover Park Ill.). • Disposable sterile transfer pipette (Fisher Scientific, Hanover Park Ill.). • Sterilized 2″×2″ 4 ply gauze (Medline Industries, Mundelein Ill.) • 30 mL sterile disposable syringe (Becton Dickinson, Franklin Lakes N.J.). • Hemocytometer (Fisher Scientific, Hanover Park Ill.). […]
# [5] = system: T. equinum; test: MIC testing against different Trichophyton species: T. equinum; type: cell-based
# Experimental: as §11
# [6] = system: T. mentagrophytes; test: MIC testing against different Trichophyton species: T. mentagrophytes; type: cell-based
# Experimental: as §11
# [7] = range, reference strain of T. tonsurans (Table 2), read-out: IC50 [range]
# [8] = reference strain of T. tonsurans (Table 2), read-out: IC50
"IC50 ([2]; dose response (DR plate), reference strain of T. tonsurans, read-out: rMIC50)","IC50 [2, 7]","IC50 [2, 8]",IC50 ([3]; T. tonsurans strain 0924-0254),IC50 ([3]; T. tonsurans strain 0924-1093),IC50 ([3]; T. tonsurans strain 0924-1456),IC50 ([3]; T. tonsurans strain 0924-1669),IC50 ([3]; T. tonsurans strain 1119-0616),IC50 [4],IC50 [5],IC50 [6],Compound,Prelim H ratio [1],Prelim L ratio [1]
< 10 nM,3 to 58 nM,10 nM,3 nM,5 nM,15 nM,5 nM,10 nM,68 nM,21 nM,19 nM,COCc1c(C(C)C)nc(C(C)C)c(/C=C/[C@@H](O)C[C@@H](O)CC(=O)O)c1-c1ccc(F)cc1 [Cerivastatin],1.06,2.28
–,24 to 62 nM,30 nM,29 nM,50 nM,52 nM,52 nM,62 nM,303 nM,86 nM,71 nM,CCC(C)(C)C(=O)O[C@H]1C[C@@H](C)C=C2C=C[C@H](C)[C@H](CC[C@@H](O)C[C@@H](O)CC(=O)O)[C@H]21 [simvistatin acid],–,–
